According to US20240166652A1, “MODULATORS OF THE INTEGRATED STRESS PATHWAY” (Calico Life Sciences LLC, priority 2017, published 2024):

Tested on: ATF4 luciferase reporter in HEK293T cells
Assay: ATF4-Luc assay (ATF4 luciferase reporter, tunicamycin-treated HEK293T cells)
Type: cell-based, human
Details: HEK293T cells carrying the ATF4 luciferase reporter, 1 μg/mL tunicamycin, 7 hours

| Structure (SMILES) | EC50 (Homo sapiens, HEK-293T) [nM] | EC50 [nM] |
| --- | --- | --- |
| O=C(COc1ccc(Cl)c(F)c1)NC12CCC(NC(=O)COc3ccc(Cl)c(F)c3)(CC1)C1(CO1)C2 (stereo not shown) [Compound 654, N,N′-(spiro[bicyclo[2.2.2]octane-2,2′-oxirane]-1,4-diyl)bis[2-(4-chloro-3-fluorophenoxy)acetamide]] | < 10 |  |
| COc1ncc(OCC(=O)NC23CCC(NC(=O)COc4ccc(Cl)c(F)c4)(CC2)C(=O)C3)cn1 [Compound 655, 2-(4-chloro-3-fluorophenoxy)-N-(4-{2-[(2-methoxypyrimidin-5-yl)oxy]acetamido}-2-oxobicyclo[2.2.2]octan-1-yl)acetamide] | 10 to 50 |  |
| CN(CC(=O)NC12CCC(NC(=O)COc3ccc(Cl)c(F)c3)(CC1)C[C@@H]2O)c1ccc(Cl)cc1 [Compound 656, 2-(4-chloro-3-fluorophenoxy)-N-[(3S)-4-{2-[(4-chlorophenyl)(methyl)amino]acetamido}-3-hydroxybicyclo[2.2.2]octan-1-yl]acetamide] | 10 to 50 |  |
| O=C(COc1ccc(Cl)c(F)c1)NC12CCC(NC(=O)CNc3ccc(Cl)cc3)(CC1)[C@@H](O)C2 [Compound 657, 2-(4-chloroanilino)-N-{(2S)-4-[2-(4-chloro-3-fluorophenoxy)acetamido]-2-hydroxybicyclo[2.2.2]octan-1-yl}acetamide] | 50 to 250 |  |
| Cn1cc(OCC(=O)NC23CCC(NC(=O)COc4ccc(Cl)c(F)c4)(CC2)C[C@@H]3O)cn1 [Compound 658, 2-(4-chloro-3-fluorophenoxy)-N-[(3S)-3-hydroxy-4-{2-[(1-methyl-1H-pyrazol-4-yl)oxy]acetamido}bicyclo[2.2.2]octan-1-yl]acetamide] | 50 to 250 |  |
| O=C(COc1ccc(Cl)c(F)c1)NC12CCC(NC(=O)COc3cccc(F)c3)(CC1)[C@@H](O)C2 [Compound 659, 2-(4-chloro-3-fluorophenoxy)-N-{(3S)-4-[2-(3-fluorophenoxy)acetamido]-3-hydroxybicyclo[2.2.2]octan-1-yl}acetamide] | < 10 |  |
| O=C(COc1ccc(Cl)c(F)c1)NC12CCC(NC(=O)COc3cccc(Cl)c3)(CC1)[C@@H](O)C2 [Compound 660, 2-(4-chloro-3-fluorophenoxy)-N-{(3S)-4-[2-(3-chlorophenoxy)acetamido]-3-hydroxybicyclo[2.2.2]octan-1-yl}acetamide] | < 10 |  |
| Cn1cc(OCC(=O)NC23CCC(NC(=O)COc4ccccn4)(CC2)C[C@@H]3O)cn1 [Compound 661, N-[(2S)-2-hydroxy-4-{2-[(pyridin-2-yl)oxy]acetamido}bicyclo[2.2.2]octan-1-yl]-2-[(1-methyl-1H-pyrazol-4-yl)oxy]acetamide] | > 2000 |  |
| O=C(COc1ccccn1)NC12CCC(NC(=O)COc3cccc(Cl)c3)(CC1)[C@@H](O)C2 [Compound 662, 2-(3-chlorophenoxy)-N-[(2S)-2-hydroxy-4-{2-[(pyridin-2-yl)oxy]acetamido}bicyclo[2.2.2]octan-1-yl]acetamide] | 250 to 500 |  |
| O=C(COc1ccccn1)NC12CCC(NC(=O)COc3ccc(Cl)c(F)c3)(CC1)[C@@H](O)C2 [Compound 663, 2-(4-chloro-3-fluorophenoxy)-N-[(2S)-2-hydroxy-4-{2-[(pyridin-2-yl)oxy]acetamido}bicyclo[2.2.2]octan-1-yl]acetamide] | 10 to 50 |  |
| Cc1cc(OCC(=O)NC23CCC(NC(=O)COc4ccc(Cl)c(Cl)c4)(CC2)[C@@H](O)C3)no1 [Compound 664, 2-(3,4-dichlorophenoxy)-N-[(2S)-2-hydroxy-4-{2-[(5-methyl-1,2-oxazol-3-yl)oxy]acetamido}bicyclo[2.2.2]octan-1-yl]acetamide] | 10 to 50 |  |
| Cc1cc(OCC(=O)NC23CCC(NC(=O)COc4ccc(Cl)c(F)c4)(CC2)[C@@H](O)C3)no1 [Compound 665, 2-(4-chloro-3-fluorophenoxy)-N-[(2S)-2-hydroxy-4-{2-[(5-methyl-1,2-oxazol-3-yl)oxy]acetamido}bicyclo[2.2.2]octan-1-yl]acetamide] | 10 to 50 |  |
| COc1cc(OCC(=O)NC23CCC(NC(=O)COc4ccc(Cl)c(F)c4)(CC2)[C@@H](O)C3)ncn1 [Compound 666, 2-(4-chloro-3-fluorophenoxy)-N-[(2S)-2-hydroxy-4-{2-[(6-methoxypyrimidin-4-yl)oxy]acetamido}bicyclo[2.2.2]octan-1-yl]acetamide] | 50 to 250 |  |
| COc1ccc(OCC(=O)NC23CCC(NC(=O)COc4ccc(Cl)c(F)c4)(CC2)[C@@H](O)C3)nc1 [Compound 667, 2-(4-chloro-3-fluorophenoxy)-N-[(2S)-2-hydroxy-4-{2-[(5-methoxypyridin-2-yl)oxy]acetamido}bicyclo[2.2.2]octan-1-yl]acetamide] | > 2000 |  |
| O=C(COc1ccc(Cl)c(F)c1)NC12CC(NC(=O)C3(c4ccc(Cl)cc4)CC3)(C1)C2 [Compound 668, N-{3-[2-(4-chloro-3-fluorophenoxy)acetamido]bicyclo[1.1.1]pentan-1-yl}-1-(4-chlorophenyl)cyclopropane-1-carboxamide] | > 2000 |  |
| O=C(O)/C=C1\CC2(NC(=O)COc3ccc(Cl)c(F)c3)CCC1(NC(=O)COc1ccc(Cl)c(F)c1)CC2 [Compound 669, (2E)-{1,4-bis[2-(4-chloro-3-fluorophenoxy)acetamido]bicyclo[2.2.2]octan-2-ylidene}acetic Acid] | 50 to 250 |  |

| Structure (SMILES) | EC50 (Homo sapiens, HEK-293T) [nM] | EC50 [nM] |
| --- | --- | --- |
| O=C(COc1ccc(Cl)c(F)c1)NC12CCC(O)C(NC(=O)COc3ccc(Cl)c(F)c3)(CC1)C2 (stereo not shown) [Compound 670, N,N′-(2-hydroxybicyclo[3.2.1]octane-1,5-diyl)bis[2-(4-chloro-3-fluorophenoxy)acetamide]] | 500 to 2000 |  |
| O=C(COc1ccc(Cl)c(F)c1)NC12CCC(=O)C(NC(=O)COc3ccc(Cl)c(F)c3)(CC1)C2 (stereo not shown) [Compound 671, N,N′-(2-oxobicyclo[3.2.1]octane-1,5-diyl)bis[2-(4-chloro-3-fluorophenoxy)acetamide]] | 500 to 2000 |  |
| CCOC(=O)/C=C1\CC2(NC(=O)COc3ccc(Cl)c(F)c3)CCC1(NC(=O)COc1ccc(Cl)c(F)c1)CC2 [Compound 672, ethyl (2E)-{1,4-bis[2-(4-chloro-3-fluorophenoxy)acetamido]bicyclo[2.2.2]octan-2-ylidene}acetate] | 10 to 50 |  |
| Cc1cc2nc(CNC34CCC(NC(=O)COc5ccc(C(F)(F)F)c(F)c5)(CC3)[C@@H](O)C4)[nH]c2cc1C [Compound 673, N-[(2S)-4-{[(5,6-dimethyl-1H-benzimidazol-2-yl)methyl]amino}-2-hydroxybicyclo[2.2.2]octan-1-yl]-2-[3-fluoro-4-(trifluoromethyl)phenoxy]acetamide] | 50 to 250 |  |
| COc1cncc(OCC(=O)NC23CCC(NC(=O)COc4ccc(Cl)c(F)c4)(CC2)[C@@H](O)C3)c1 [Compound 675, 2-(4-chloro-3-fluorophenoxy)-N-[(2S)-2-hydroxy-4-{2-[(5-methoxypyridin-3-yl)oxy]acetamido}bicyclo[2.2.2]octan-1-yl]acetamide] | 10 to 50 |  |
| COCCN1C(=O)C2(NC(=O)COc3ccc(Cl)c(F)c3)CCC1(NC(=O)COc1ccc(Cl)c(F)c1)CC2 [Compound 676, N,N′-[2-(2-methoxyethyl)-3-oxo-2-azabicyclo[2.2.2]octane-1,4-diyl]bis[2-(4-chloro-3-fluorophenoxy)acetamide]] | 250 to 500 |  |
| CCCN1C(=O)C2(NC(=O)COc3ccc(Cl)c(F)c3)CCC1(NC(=O)COc1ccc(Cl)c(F)c1)CC2 [Compound 677, N,N′-(3-oxo-2-propyl-2-azabicyclo[2.2.2]octane-1,4-diyl)bis[2-(4-chloro-3-fluorophenoxy)acetamide]] | 500 to 2000 |  |
| O=C(COc1ccc(Cl)c(F)c1)NC12CCC(NC(=O)COc3ccc(Cl)c(F)c3)(CC1)N(CCO)C2=O [Compound 679, N,N′-[2-(2-hydroxyethyl)-3-oxo-2-azabicyclo[2.2.2]octane-1,4-diyl]bis[2-(4-chloro-3-fluorophenoxy)acetamide]] | 50 to 250 |  |
| O=C(COc1ccc(F)c(F)c1)NC12CCC(NC(=O)COc3ccc(Cl)c(Cl)c3)(CC1)C(=O)N2 [Compound 680, 2-(3,4-dichlorophenoxy)-N-{1-[2-(3,4-difluorophenoxy)acetamido]-3-oxo-2-azabicyclo[2.2.2]octan-4-yl}acetamide] | < 10 |  |
| O=C(COc1ccc(F)c(F)c1)NC12CCC(NC(=O)COc3ccc(F)c(F)c3)(CC1)[C@@H](O)C2 [Compound 683, N,N′-[(2S)-2-hydroxybicyclo[2.2.2]octane-1,4-diyl]bis[2-(3,4-difluorophenoxy)acetamide]] |  | < 10 |
| O=C(O)CN(CC(=O)NC12CC(NC(=O)COc3ccc(Cl)c(F)c3)(C1)C2)c1ccc(Cl)cc1 [Compound 684, {[2-({3-[2-(4-chloro-3-fluorophenoxy)acetamido]bicyclo[1.1.1]pentan-1-yl}amino)-2-oxoethyl](4-chlorophenyl)amino}acetic Acid] | > 2000 |  |
| CC(C)(C)OC(=O)CN(CC(=O)NC12CC(NC(=O)COc3ccc(Cl)c(F)c3)(C1)C2)c1ccc(Cl)cc1 [Compound 685, tert-butyl {[2-({3-[2-(4-chloro-3-fluorophenoxy)acetamido]bicyclo[1.1.1]pentan-1-yl}amino)-2-oxoethyl](4-chlorophenyl)amino}acetate] | > 2000 |  |
| O=C(O)CN(CCOc1ccc(Cl)c(F)c1)C12CC(NC(=O)COc3ccc(Cl)c(F)c3)(C1)C2 [Compound 686, ({3-[2-(4-chloro-3-fluorophenoxy)acetamido]bicyclo[1.1.1]pentan-1-yl}[2-(4-chloro-3-fluorophenoxy)ethyl]amino)acetic Acid] | 500 to 2000 |  |
| O=C(O)CN(CCCOc1ccc(Cl)c(F)c1)C12CC(NC(=O)COc3ccc(Cl)c(F)c3)(C1)C2 [Compound 687, ({3-[2-(4-chloro-3-fluorophenoxy)acetamido]bicyclo[1.1.1]pentan-1-yl}[3-(4-chloro-3-fluorophenoxy)propyl]amino)acetic Acid] | 500 to 2000 |  |
| CC(C)(C)OC(=O)CN(CCOc1ccc(Cl)c(F)c1)C12CC(NC(=O)COc3ccc(Cl)c(F)c3)(C1)C2 [Compound 688, tert-butyl ({3-[2-(4-chloro-3-fluorophenoxy)acetamido]bicyclo[1.1.1]pentan-1-yl}[2-(4-chloro-3-fluorophenoxy)ethyl]amino)acetate] | 50 to 250 |  |
